In patent publication US20110257208A1, “COMPOUNDS USEFUL AS FAAH MODULATORS AND USES THEREOF” (priority 2008, published 2011):

biological target: T1, hFAAH (Homo sapiens, UniProt O00519); experiment: Fluorimetric assay with hFAAH microsomes (enzymatic, fluorescence based); format: biochemical; details: compound at 1 uM, AA-AMC substrate
T1 construct: expressed in transfected cells; host or cells: HEK293-TRex (Invitrogen) stably transfected with hFAAH in the pcDNA5-Tet-off vector, or T84 human colon epithelial cells (endogenous hFAAH); used as a microsomal preparation
T1 sequence (O00519 1-579): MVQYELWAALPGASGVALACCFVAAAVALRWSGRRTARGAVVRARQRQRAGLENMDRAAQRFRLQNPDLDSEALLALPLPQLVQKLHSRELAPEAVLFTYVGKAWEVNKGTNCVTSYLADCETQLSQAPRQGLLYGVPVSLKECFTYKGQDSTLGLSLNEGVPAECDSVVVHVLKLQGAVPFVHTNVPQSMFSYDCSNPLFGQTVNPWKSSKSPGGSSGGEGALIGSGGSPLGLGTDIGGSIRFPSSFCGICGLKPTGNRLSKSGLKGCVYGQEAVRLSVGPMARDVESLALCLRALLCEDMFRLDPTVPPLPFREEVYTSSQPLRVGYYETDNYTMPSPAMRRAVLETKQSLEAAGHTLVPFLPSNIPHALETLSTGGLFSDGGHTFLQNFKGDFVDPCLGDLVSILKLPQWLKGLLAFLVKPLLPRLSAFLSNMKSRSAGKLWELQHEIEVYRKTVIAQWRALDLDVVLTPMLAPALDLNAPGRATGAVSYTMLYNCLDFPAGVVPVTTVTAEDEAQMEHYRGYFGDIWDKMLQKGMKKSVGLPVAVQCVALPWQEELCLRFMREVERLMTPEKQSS
Experimental: Human cell line T84 (human colon epithelial cells), which expresses endogenous hFAAH, or HEK293-TRex cells (Invitrogen) stably transfected with hFAAH in the pcDNA5-Tet-off vector are cultured in medium containing DMEM, 10% FBS penicillin/streptomycin, glutamax, 200 μg/ml hygromycin and 0.5 μg/ml blasticidin. Cell collection is done 24 h after induction with doxycycline by first washing the cells with cold PBS and then incubating them with Versene before centrifugation. Cell pellets are then stored at −80° C. until needed. For homogenization, the cell pellets are thawed on ice […] and resuspended in homogenization buffer (50 mM HEPES (pH 7.4), 1 mM EDTA, 1 μM Pepstatin A, 100 μM Leupeptin, 0.1 mg/mL aprotinin). Cell suspensions are then homogenized on ice using the Polytron 1200 C at setting 6 for three 30-second intervals with 30-second rests. The suspension is centrifuged at 1000 g for 10 minutes at 4° C. and the supernatant is collected and further centrifuged at 24000 rpm for 30 minutes at 4° C. using an ultracentrifuge. Pellets are resuspended by adding in cold microsomal buffer (50 mM HEPES (pH 7.4) and 1 mM EDTA) and sheared through a 23-gauge needle five times, keeping the suspension on ice. Protein concentrations are determined using the BCA assay and aliquoted preparations are stored at −80° C. until needed.
Compound potency against hFAAH is determined using an enzymatic assay with a fluorescence readout. Briefly, experiments were carried out in a 96-well plate format (Corning Costar, # 3370) with a total well volume of 160 μL with components added in the following order: assay buffer (50 mM HEPES (pH 7.4), 1 mM EDTA, 1.4 mg/mL BSA), compound solutions (7 different concentrations per compound in duplicate), microsomal enzyme preparation (10 μg per well) and substrate [AA-AMC (arachadonyl 7-amino 4-methyl coumarin amide), 2 μM]. After a brief shaking, a kinetic read of the plate is obtained using a Tecan Safire II in kinetic mode for 275 cycles with excitation and emission wavelengths of 355 and 460 nm, respectively. Raw data is then processed and analyzed using Assay Explorer and GraphPad Prism.
The following compounds have been or can be prepared according to the methods of the invention. An enzymatic (fluorescence based) assay is performed as described above. In Table 1, activity of each compound is expressed as follows: • ++++ % Inhibition >75% • +++ % Inhibition >50% • ++ % Inhibition >25% • + % Inhibition <25%

inhibition at 1 µM [%] | Compound
> 25 | CC(C)C(C)N1Cc2ncnc(Nc3cnc4ccccc4c3)c2C1 (centres unmarked) [Compound 32, [6-(1,2-Dimethyl-propyl)-6,7-dihydro-5H-pyrrolo[3,4-d]pyrimidin-4-yl]-quinolin-3-yl-amine]
> 75 | c1ccc2ncc(Nc3ncnc4c3CN(CC3CCOCC3)C4)cc2c1 [Compound 33, Quinolin-3-yl-[6-(tetrahydro-pyran-4-ylmethyl)-6,7-dihydro-5H-pyrrolo[3,4-d]pyrimidin-4-yl]-amine]
< 25 | CC(C)N1Cc2ncnc(Nc3cnc4ccccc4c3)c2C1 [Compound 34, (6-Isopropyl-6,7-dihydro-5H-pyrrolo[3,4-d]pyrimidin-4-yl)-quinolin-3-yl-amine]
< 25 | CCC(C)N1Cc2ncnc(Nc3cnc4ccccc4c3)c2C1 (centres unmarked) [Compound 35, (6-sec-Butyl-6,7-dihydro-5H-pyrrolo[3,4-d]pyrimidin-4-yl)-quinolin-3-yl-amine]
> 25 | CC(C1CCC1)N1Cc2ncnc(Nc3cnc4ccccc4c3)c2C1 (centres unmarked) [Compound 36, [6-(1-Cyclobutyl-ethyl)-6,7-dihydro-5H-pyrrolo[3,4-d]pyrimidin-4-yl]-quinolin-3-yl-amine]
> 50 | CC(C1CCCC1)N1Cc2ncnc(Nc3cnc4ccccc4c3)c2C1 (centres unmarked) [Compound 37, [6-(1-Cyclopentyl-ethyl)-6,7-dihydro-5H-pyrrolo[3,4-d]pyrimidin-4-yl]-quinolin-3-yl-amine]
> 75 | CC(C1CCCCC1)N1Cc2ncnc(Nc3cnc4ccccc4c3)c2C1 (centres unmarked) [Compound 38, [6-(1-Cyclohexyl-ethyl)-6,7-dihydro-5H-pyrrolo[3,4-d]pyrimidin-4-yl]-quinolin-3-yl-amine]
< 25 | CC(CC(C)(C)C)N1Cc2ncnc(Nc3cnc4ccccc4c3)c2C1 (centres unmarked) [Compound 39, Quinolin-3-yl-[6-(1,3,3-trimethyl-butyl)-6,7-dihydro-5H-pyrrolo[3,4-d]pyrimidin-4-yl]-amine]
> 25 | c1ccc2ncc(Nc3ncnc4c3CN(C3CCCCCC3)C4)cc2c1 [Compound 40, (6-Cycloheptyl-6,7-dihydro-5H-pyrrolo[3,4-d]pyrimidin-4-yl)-quinolin-3-yl-amine]
> 50 | c1ccc2ncc(Nc3ncnc4c3CN(C3CCCC3)C4)cc2c1 [Compound 41, (6-Cyclopentyl-6,7-dihydro-5H-pyrrolo[3,4-d]pyrimidin-4-yl)-quinolin-3-yl-amine]
> 25 | CCCC(C)N1Cc2ncnc(Nc3cnc4ccccc4c3)c2C1 (centres unmarked) [Compound 42, [6-(1-Methyl-butyl)-6,7-dihydro-5H-pyrrolo[3,4-d]pyrimidin-4-yl]-quinolin-3-yl-amine]
< 25 | c1ccc2ncc(Nc3ncnc4c3CN(C3CCC3)C4)cc2c1 [Compound 43, (6-Cyclobutyl-6,7-dihydro-5H-pyrrolo[3,4-d]pyrimidin-4-yl)-quinolin-3-yl-amine]
< 25 | c1ccc2ncc(Nc3ncnc4c3CN(C3COC3)C4)cc2c1 [Compound 44, (6-Oxetan-3-yl-6,7-dihydro-5H-pyrrolo[3,4-d]pyrimidin-4-yl)-quinolin-3-yl-amine]
> 50 | CC(C)(C)OC(=O)N1Cc2ncnc(Nc3cnc4ccccc4c3)c2C1 [Compound 45, 4-(Quinolin-3-ylamino)-5,7-dihydro-pyrrolo[3,4-d]pyrimidine-6-carboxylic acid tert-butyl ester]
< 25 | O=C(NCC1CCCCC1)N1Cc2ncnc(Nc3cnc4ccccc4c3)c2C1 [Compound 46, 4-(Quinolin-3-ylamino)-5,7-dihydro-pyrrolo[3,4-d]pyrimidine-6-carboxylic acid cyclohexylmethyl-amide]
< 25 | O=C(NC1CCCCC1)N1Cc2ncnc(Nc3cnc4ccccc4c3)c2C1 [Compound 47, 4-(Quinolin-3-ylamino)-5,7-dihydro-pyrrolo[3,4-d]pyrimidine-6-carboxylic acid cyclohexylamide]
< 25 | Cc1nc(C)c(CNC(=O)N2Cc3ncnc(Nc4cnc5ccccc5c4)c3C2)s1 [Compound 48, 4-(Quinolin-3-ylamino)-5,7-dihydro-pyrrolo[3,4-d]pyrimidine-6-carboxylic acid (2,4-dimethyl-thiazol-5-ylmethyl)-amide]
> 50 | Cc1nc(C)c(C(=O)N2Cc3ncnc(Nc4cnc5ccccc5c4)c3C2)s1 [Compound 49, (2,4-Dimethyl-thiazol-5-yl)-[4-(quinolin-3-ylamino)-5,7-dihydro-pyrrolo[3,4-d]pyrimidin-6-yl]-methanone]
< 25 | Cc1nc(C)c(CC(=O)N2Cc3ncnc(Nc4cnc5ccccc5c4)c3C2)s1 [Compound 50, 2-(2,4-Dimethyl-thiazol-5-yl)-1-[4-(quinolin-3-ylamino)-5,7-dihydro-pyrrolo[3,4-d]pyrimidin-6-yl]-ethanone]
< 25 | Cc1nc(C)c(NC(=O)N2Cc3ncnc(Nc4cnc5ccccc5c4)c3C2)s1 [Compound 51, 4-(Quinolin-3-ylamino)-5,7-dihydro-pyrrolo[3,4-d]pyrimidine-6-carboxylic acid (2,4-dimethyl-thiazol-5-yl)-amide]
< 25 | O=C(CN1CCCCCC1)N1Cc2ncnc(Nc3cnc4ccccc4c3)c2C1 [Compound 52, 2-Azepan-1-yl-1-[4-(quinolin-3-ylamino)-5,7-dihydro-pyrrolo[3,4-d]pyrimidin-6-yl]-ethanone]
< 25 | O=C(CN1CCCCC1)N1Cc2ncnc(Nc3cnc4ccccc4c3)c2C1 [Compound 53, 2-Piperidin-1-yl-1-[4-(quinolin-3-ylamino)-5,7-dihydro-pyrrolo[3,4-d]pyrimidin-6-yl]-ethanone]
< 25 | O=C(CN1CCCC1)N1Cc2ncnc(Nc3cnc4ccccc4c3)c2C1 [Compound 54, 2-Pyrrolidin-1-yl-1-[4-(quinolin-3-ylamino)-5,7-dihydro-pyrrolo[3,4-d]pyrimidin-6-yl]-ethanone]
> 25 | O=S(=O)(c1ccc(-c2cnco2)s1)N1Cc2ncnc(Nc3cnc4ccccc4c3)c2C1 [Compound 55, [6-(5-Oxazol-5-yl-thiophene-2-sulfonyl)-6,7-dihydro-5H-pyrrolo[3,4-d]pyrimidin-4-yl]-quinolin-3-yl-amine]
> 25 | Cc1ccsc1S(=O)(=O)N1Cc2ncnc(Nc3cnc4ccccc4c3)c2C1 [Compound 56, [6-(3-Methyl-thiophene-2-sulfonyl)-6,7-dihydro-5H-pyrrolo[3,4-d]pyrimidin-4-yl]-quinolin-3-yl-amine]
> 25 | O=S(=O)(C1CCCC1)N1Cc2ncnc(Nc3cnc4ccccc4c3)c2C1 [Compound 57, (6-Cyclopentanesulfonyl-6,7-dihydro-5H-pyrrolo[3,4-d]pyrimidin-4-yl)-quinolin-3-yl-amine]
> 25 | O=S(=O)(c1ccc(F)cc1F)N1Cc2ncnc(Nc3cnc4ccccc4c3)c2C1 [Compound 58, [6-(2,4-Difluoro-benzenesulfonyl)-6,7-dihydro-5H-pyrrolo[3,4-d]pyrimidin-4-yl]-quinolin-3-yl-amine]
> 75 | Cc1ccccc1S(=O)(=O)N1Cc2ncnc(Nc3cnc4ccccc4c3)c2C1 [Compound 59, Quinolin-3-yl-[6-(toluene-2-sulfonyl)-6,7-dihydro-5H-pyrrolo[3,4-d]pyrimidin-4-yl]-amine]
> 50 | Cn1nccc1S(=O)(=O)N1Cc2ncnc(Nc3cnc4ccccc4c3)c2C1 [Compound 60, [6-(2-Methyl-2H-pyrazole-3-sulfonyl)-6,7-dihydro-5H-pyrrolo[3,4-d]pyrimidin-4-yl]-quinolin-3-yl-amine]
